Measured values from patent US20240293558A1, “KRAS INHIBITOR CONJUGATES” (Erasca, Inc., priority 2021, published 2024).

Assays:
[1] = biological target: T1, KRAS (WT) (Homo sapiens, UniProt P01116); experiment: In-vitro RAS-RAF binding assay (RRB), HTRF/FRET; assay type: biochemical; conditions: Table 2, average of multiple runs of each compound; read-out: Inhibition of RAS-RAF Binding (in-vitro) KRAS (WT) IC50
T1 construct: Biotinylated KRAS protein amino acids 1-169 (produced at Erasca); made in house
Experimental: (§1) Biotinylated KRAS protein amino acids 1-169 (produced at […]) is labeled with streptavidin-terbium (lanthanide cryptate donor fluorophore) in assay buffer (50 mM HEPES, pH 7.5, 100 mM NaCl, 1 mM MgCl2, 1 mM DTT) at a final concentration of 30 nM. In a separate reaction mixture, 30 nM cRAF (RBD) (Abcam, Cambridge MA) is labeled with anti-GST d2 (acceptor fluorophore). Labeling reactions are incubated for 1 hour at room temperature. […] Following the compound incubation, SOS1 catalytic domain (produced at […]) and GTPgS are added to the reaction to initiate nucleotide exchange (60 minutes exchange reaction). Once in the GTP state KRAS will bind to cRAF. No binding will occur if KRAS remains in the GDP state. Compounds may block nucleotide exchange or may create a steric obstruction to cRAF-KRAS interaction by binding to the RAS effector site. […] A portion of this mixture is transferred to a white 384-well plate (20 uL per well in duplicate) and read on an HTRF compatible plate reader (ClarioSTAR). Fluorescent resonance energy transfer (FRET) is measured at equilibrium. FRET signal will be high if KRAS-cRAF binding occurs. FRET signal will be low if KRAS-cRAF binding is inhibited by the test compound. Table 2 represents the average of multiple runs of each compound.

[2] = biological target: KRAS G12D (Homo sapiens, UniProt P01116, G12D); experiment: In-vitro RAS-RAF binding assay (RRB), HTRF/FRET; assay type: biochemical; parameters: Biotinylated KRAS protein amino acids 1-169 (produced at Erasca); made in house; conditions: Table 2, average of multiple runs of each compound; read-out: Inhibition of RAS-RAF Binding (in-vitro) KRAS (G12D) IC50
Experimental: as §1

T1 sequence (P01116 1-169 isoform P01116-2): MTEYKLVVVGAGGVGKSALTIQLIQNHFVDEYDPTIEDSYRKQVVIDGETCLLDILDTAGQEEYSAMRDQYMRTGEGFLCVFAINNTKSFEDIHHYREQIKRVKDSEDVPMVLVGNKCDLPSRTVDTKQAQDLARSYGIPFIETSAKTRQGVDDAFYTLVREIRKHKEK
KRAS G12D, sequence (P01116 1-169 isoform P01116-2 G12D): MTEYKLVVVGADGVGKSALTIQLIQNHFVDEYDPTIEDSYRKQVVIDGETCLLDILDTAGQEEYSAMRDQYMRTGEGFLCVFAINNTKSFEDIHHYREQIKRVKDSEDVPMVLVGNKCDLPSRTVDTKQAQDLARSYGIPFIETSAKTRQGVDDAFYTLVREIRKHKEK

IC50 [1] [nM] | IC50 [2] [nM] | SMILES
1410 | 9.62 | C#Cc1c(F)ccc2cc(O)cc(-c3ncc4c(N5CC6CCC(C5)N6)nc(OCCN5CCC(C)(COc6cc([C@H](C(=O)N7C[C@H](O)C[C@H]7C(=O)N[C@@H](C)c7ccc(-c8c(F)cc(F)cc8F)cc7)C(C)C)on6)CC5)nc4c3F)c12 [Example 64, (2S,4R)-1-((2R)-2-(3-((1-(2-((4-(3,8-diazabicyclo[3.2.1]octan-3-yl)-7-(8-ethynyl-7-fluoro-3-hydroxynaphthalen-1-yl)-8-fluoropyrido[4,3-d]pyrimidin-2-yl)oxy)ethyl)-4-methylpiperidin-4-yl)methoxy)isoxazol-5-yl)-3-methylbutanoyl)-4-hydroxy-N-((S)-1-(2′,4′,6′-trifluoro-[1,1′-biphenyl]-4-yl)ethyl)pyrrolidine-2-carboxamide]
568 | 9.05 | C[C@H](NC(=O)[C@@H]1C[C@@H](O)CN1C(=O)[C@@H](NC(=O)CCCCN1CCC[C@H]1COc1nc(N2CC3CCC(C2)N3)c2cnc(-c3cc(O)cc4cccc(F)c34)c(F)c2n1)C(C)(C)C)c1ccc(-c2cccc(F)c2)cc1 [Example 86, (2S,4R)-1-((2S)-2-(5-((2S)-2-(((4-(3,8-diazabicyclo[3.2.1]octan-3-yl)-8-fluoro-7-(8-fluoro-3-hydroxynaphthalen-1-yl)pyrido[4,3-d]pyrimidin-2-yl)oxy)methyl)pyrrolidin-1-yl)pentanamido)-3,3-dimethylbutanoyl)-N-((S)-1-(3′-fluoro-[1,1′-biphenyl]-4-yl)ethyl)-4-hydroxypyrrolidine-2-carboxamide]
34.3 | 8.92 | C#Cc1c(F)ccc2cc(O)cc(-c3ncc4c(N5CC6CCC(C5)N6)nc(OC[C@@H]5CCCN5CCCOCCC(=O)N[C@H](C(=O)N5C[C@H](O)C[C@H]5C(=O)N[C@@H](C)c5ccc(-c6c(F)ccc(F)c6F)cc5)C(C)(C)C)nc4c3F)c12 [Example 44, (2S,4R)-1-((2S)-2-(3-(3-((2S)-2-(((4-(3,8-diazabicyclo[3.2.1]octan-3-yl)-7-(8-ethynyl-7-fluoro-3-hydroxynaphthalen-1-yl)-8-fluoropyrido[4,3-d]pyrimidin-2-yl)oxy)methyl)pyrrolidin-1-yl)propoxy)propanamido)-3,3-dimethylbutanoyl)-4-hydroxy-N-((S)-1-(2′,3′,6′-trifluoro-[1,1′-biphenyl]-4-yl)ethyl)pyrrolidine-2-carboxamide]
63.3 | 16.3 | Cc1ncsc1-c1ccc([C@H](CO)NC(=O)[C@@H]2C[C@@H](O)CN2C(=O)[C@@H](NC(=O)CCCCN2CCC[C@H]2COc2nc(N3CC4CCC(C3)N4)c3cc(Cl)c(-c4ccc(F)c5sc(N)c(C#N)c45)c(F)c3n2)C(C)(C)C)cc1 [Example 88, (2S,4R)-1-((2S)-2-(5-((2S)-2-(((7-(2-amino-3-cyano-7-fluorobenzo[b]thiophen-4-yl)-4-(3,8-diazabicyclo[3.2.1]octan-3-yl)-6-chloro-8-fluoroquinazolin-2-yl)oxy)methyl)pyrrolidin-1-yl)pentanamido)-3,3-dimethylbutanoyl)-4-hydroxy-N-((R)-2-hydroxy-1-(4-(4-methylthiazol-5-yl)phenyl)ethyl)pyrrolidine-2-carboxamide]
27.9 | 9.31 | C#Cc1c(F)ccc2cc(O)cc(-c3ncc4c(N5CC6CCC(C5)N6)nc(OC[C@@H]5CCCN5CCCOCCC(=O)N[C@H](C(=O)N5C[C@H](O)C[C@H]5C(=O)N[C@@H](CO)c5ccc(-c6scnc6C)cc5)C(C)(C)C)nc4c3F)c12 [Example 29, (2S,4R)-1-((2S)-2-(3-(3-((2S)-2-(((4-(3,8-diazabicyclo[3.2.1]octan-3-yl)-7-(8-ethynyl-7-fluoro-3-hydroxynaphthalen-1-yl)-8-fluoropyrido[4,3-d]pyrimidin-2-yl)oxy)methyl)pyrrolidin-1-yl)propoxy)propanamido)-3,3-dimethylbutanoyl)-4-hydroxy-N—((R)-2-hydroxy-1-(4-(4-methylthiazol-5-yl)phenyl)ethyl)pyrrolidine-2-carboxamide]
118 | 13.1 | C#Cc1c(F)ccc2cc(O)cc(-c3ncc4c(N5CC6CCC(C5)N6)nc(OC[C@@H]5CCCN5CCCOCCC(=O)N[C@H](C(=O)N5C[C@H](O)C[C@H]5C(=O)N[C@@H](C)c5ccc(-c6c(Cl)ccc(Cl)c6Cl)cc5)C(C)(C)C)nc4c3F)c12 [Example 57, (2S,4R)-1-((2S)-2-(3-(3-((2S)-2-(((4-(3,8-diazabicyclo[3.2.1]octan-3-yl)-7-(8-ethynyl-7-fluoro-3-hydroxynaphthalen-1-yl)-8-fluoropyrido[4,3-d]pyrimidin-2-yl)oxy)methyl)pyrrolidin-1-yl)propoxy)propanamido)-3,3-dimethylbutanoyl)-4-hydroxy-N-((S)-1-(2′,3′,6′-trichloro-[1,1′-biphenyl]-4-yl)ethyl)pyrrolidine-2-carboxamide]
22.2 | 7.67 | C#Cc1c(F)ccc2cc(O)cc(-c3ncc4c(N5CC6CCC(C5)N6)nc(OC[C@@H]5CCCN5CCCOCCC(=O)N[C@H](C(=O)N5C[C@H](O)C[C@H]5C(=O)N[C@@H](C)c5ccc(-c6c(C)ccnc6C)cc5)C(C)(C)C)nc4c3F)c12 [Example 47, (2S,4R)-1-((2S)-2-(3-(3-((2S)-2-(((4-(3,8-diazabicyclo[3.2.1]octan-3-yl)-7-(8-ethynyl-7-fluoro-3-hydroxynaphthalen-1-yl)-8-fluoropyrido[4,3-d]pyrimidin-2-yl)oxy)methyl)pyrrolidin-1-yl)propoxy)propanamido)-3,3-dimethylbutanoyl)-N-((S)-1-(4-(2,4-dimethylpyridin-3-yl)phenyl)ethyl)-4-hydroxypyrrolidine-2-carboxamide]
> 10000 | 11.1 | C#Cc1c(F)ccc2cc(O)cc(-c3ncc4c(N5CC6CCC(C5)N6)nc(OCCN5CCC(F)(COc6cc([C@H](C(=O)N7C[C@H](O)C[C@H]7C(=O)N[C@@H](C)c7ccc(-c8c(F)cc(F)cc8F)cc7)C(C)C)on6)CC5)nc4c3F)c12 [Example 65, (2S,4R)-1-((2R)-2-(3-((1-(2-((4-(3,8-diazabicyclo[3.2.1]octan-3-yl)-7-(8-ethynyl-7-fluoro-3-hydroxynaphthalen-1-yl)-8-fluoropyrido[4,3-d]pyrimidin-2-yl)oxy)ethyl)-4-fluoropiperidin-4-yl)methoxy)isoxazol-5-yl)-3-methylbutanoyl)-4-hydroxy-N-((S)-1-(2′,4′,6′-trifluoro-[1,1′-biphenyl]-4-yl)ethyl)pyrrolidine-2-carboxamide]
73.1 | 7.52 | C#Cc1c(F)ccc2cc(O)cc(-c3ncc4c(N5CC6CCC(C5)N6)nc(OC[C@@H]5CCCN5CCCOCCC(=O)N[C@H](C(=O)N5C[C@H](O)C[C@H]5C(=O)N[C@@H](C)c5ccc(-c6c(F)c(F)c(F)c(F)c6F)cc5)C(C)(C)C)nc4c3F)c12 [Example 59, (2S,4R)-1-((2S)-2-(3-(3-((2S)-2-(((4-(3,8-diazabicyclo[3.2.1]octan-3-yl)-7-(8-ethynyl-7-fluoro-3-hydroxynaphthalen-1-yl)-8-fluoropyrido[4,3-d]pyrimidin-2-yl)oxy)methyl)pyrrolidin-1-yl)propoxy)propanamido)-3,3-dimethylbutanoyl)-4-hydroxy-N-((S)-1-(2′,3′,4′,5′,6′-pentafluoro-[1,1′-biphenyl]-4-yl)ethyl)pyrrolidine-2-carboxamide]
134 | 12.7 | C#Cc1c(F)ccc2cc(O)cc(-c3ncc4c(N5CC6CCC(C5)N6)nc(OC[C@@H]5CCCN5CCCC5CCC(=O)N5[C@H](C(=O)N5C[C@H](O)C[C@H]5C(=O)N[C@@H](C)c5ccc(-c6scnc6C)cc5)C(C)(C)C)nc4c3F)c12 (stereo partly drawn) [Example 10, (2S,4R)-1-((2S)-2-(2-(3-((2S)-2-(((4-(3,8-diazabicyclo[3.2.1]octan-3-yl)-7-(8-ethynyl-7-fluoro-3-hydroxynaphthalen-1-yl)-8-fluoropyrido[4,3-d]pyrimidin-2-yl)oxy)methyl)pyrrolidin-1-yl)propyl)-5-oxopyrrolidin-1-yl)-3,3-dimethylbutanoyl)-4-hydroxy-N—((S)-1-(4-(4-methylthiazol-5-yl)phenyl)ethyl)pyrrolidine-2-carboxamide]
304 | 8.52 | Cc1ncsc1-c1ccc([C@H](C)NC(=O)[C@@H]2C[C@@H](O)CN2C(=O)[C@@H](NC(=O)CCCCN2CCC[C@H]2COc2nc(N3CC4CCC(C3)N4)c3cnc(-c4cc(O)cc5cccc(F)c45)c(F)c3n2)C(C)(C)C)cc1 [Example 82, (2S,4R)-1-((2S)-2-(5-((2S)-2-(((4-(3,8-diazabicyclo[3.2.1]octan-3-yl)-8-fluoro-7-(8-fluoro-3-hydroxynaphthalen-1-yl)pyrido[4,3-d]pyrimidin-2-yl)oxy)methyl)pyrrolidin-1-yl)pentanamido)-3,3-dimethylbutanoyl)-4-hydroxy-N-((S)-1-(4-(4-methylthiazol-5-yl)phenyl)ethyl)pyrrolidine-2-carboxamide]
